This is an account of results in ChEMBL document CHEMBL4483862, “Open-source discovery of chemical leads for next-generation chemoprotective antimalarials” (2018).

A value given as a limit tells only on which side of the number the result lay.

This assay deals with Plasmodium berghei. The assay can be described thus: Luciferase/luciferin-expressing antifolate-resistant parasites were used to infect a culture of HepG2 cells that were pre-incubated with compounds. Infected hepatocytes emit light due to the luciferase reaction. Assay results are presented as the percent inhibition of light emission compared to control. […]. The format is functional. The settings on record: sporozoite; for IC90: read-out: LUCIFERASE INFECTION ASSAY - IC90.

Setting [1] is: read-out: LUCIFERASE INFECTION ASSAY - IC50.

`CCn1c(SCC(=O)NC(=O)NCc2cccs2)nnc1C1CC1`: the IC90 is > 10 µM. The IC50 under setting [1] is > 10 µM.

As to `CCN(CC)c1ccc(/C=C(\C#N)c2nc3c(s2)CC(C)CC3)cc1` (centres undefined), the IC90 was > 10 µM. Moreover, the IC50 (HEPG2TOX_HILL_SLOPE 34.4, HEPG2TOX_R_SQUARED 0.353, PBLUC_HILL_SLOPE 1.55, PBLUC_R_SQUARED 0.645, read-out: LUCIFERASE INFECTION ASSAY - IC50) turned out to be 4.58 µM.

For the molecule `N#Cc1ccc(OCc2nc3ccccc3n2C(F)F)cc1`, the IC90 was found to be 4.42 µM. For the same molecule, for the setting “HEPG2TOX_HILL_SLOPE 1.97, HEPG2TOX_R_SQUARED 0.844, PBLUC_HILL_SLOPE 169, PBLUC_R_SQUARED 0.414, read-out: LUCIFERASE INFECTION ASSAY - IC50”, the half-maximal inhibitory concentration (IC50) was determined as 4.36 µM.

Take `O=C(/C(=C/c1ccc(F)cc1)c1ccc(-c2ccccc2)cc1)N1CCN(c2ccccc2Cl)CC1`: the IC90 was > 10 µM. Also, the IC50 (FFLUC_HILL_SLOPE 11.6, FFLUC_R_SQUARED 0.516, HEPG2TOX_HILL_SLOPE 7.73, HEPG2TOX_R_SQUARED 0.736, read-out: LUCIFERASE INFECTION ASSAY - IC50) is > 10 µM.

`COc1ccc(-c2ccnc3n[nH]c(-c4ccccc4)c23)cc1OC`: the IC90 was 3.3 µM. The IC50 (HEPG2TOX_HILL_SLOPE 2.45, HEPG2TOX_R_SQUARED 0.911, PBLUC_HILL_SLOPE 2.73, PBLUC_R_SQUARED 0.663, read-out: LUCIFERASE INFECTION ASSAY - IC50) came out at 1.48 µM.

With `CC12CCC(=O)C(C(F)(F)F)=C1C=CC1C2CCC2(C)C(O)CCC12` (centres undefined), the IC90 worked out at 3.6 µM. For the same molecule, the IC50 (HEPG2TOX_HILL_SLOPE 4.77, HEPG2TOX_R_SQUARED 0.78, PBLUC_HILL_SLOPE 14.8, PBLUC_R_SQUARED 0.24, read-out: LUCIFERASE INFECTION ASSAY - IC50) came out at 3.1 µM.

Consider `C/N=c1\scc(-c2ccc(OC(F)F)cc2)n1/N=C/c1cccs1`, for which the IC90 is 2.72 µM. The IC50 (FFLUC_HILL_SLOPE 2.65, FFLUC_R_SQUARED 0.0605, PBLUC_HILL_SLOPE 1.58, PBLUC_R_SQUARED 0.688, read-out: LUCIFERASE INFECTION ASSAY - IC50) came out at 0.676 µM.

For `COc1cc(C(=O)NC(c2ccccc2)c2ccc(C)cc2)ccc1OCC(=O)N1CCOCC1` (centres undefined), the IC90 was > 10 µM. Moreover, the IC50 under setting [1] is > 10 µM.

On to `Cc1cc(C)c2nc(N(Cc3ccccc3)C(=O)c3nc(S(C)(=O)=O)ncc3Cl)sc2c1`, for which the IC90 was > 10 µM. Besides, the IC50 (FFLUC_HILL_SLOPE 9.88, FFLUC_R_SQUARED 0.449, HEPG2TOX_HILL_SLOPE 6.61, HEPG2TOX_R_SQUARED 0.275, PBLUC_HILL_SLOPE 4.15, PBLUC_R_SQUARED 0.619, read-out: LUCIFERASE INFECTION ASSAY - IC50) was 6.34 µM.

As for `CCC(C)(C)c1ccc(Oc2ccc(NC(=O)CN3c4cccc5cccc(c45)S3(=O)=O)cc2)cc1`, the IC90 was > 10 µM. Also, under setting [1], the IC50 is > 10 µM.

For `CCC(C)c1ccccc1OS(=O)(=O)c1ccc2c(c1)NC(=O)CO2` (centres undefined), the IC90 is > 10 µM. The IC50 under setting [1] is > 10 µM.

As to `COc1cccc(C(=O)Nc2nc3ccc(C)cn3c2C(=O)NC2CCCC2)c1`, the IC90 is 3.16 µM. Besides, where the note is “HEPG2TOX_HILL_SLOPE 1.86, HEPG2TOX_R_SQUARED 0.913, PBLUC_HILL_SLOPE 11.1, PBLUC_R_SQUARED 0.319, read-out: LUCIFERASE INFECTION ASSAY - IC50”, the half-inhibitory concentration (IC50) was determined as 2.59 µM.

As for `CCn1cc(C(=O)N[C@@H](C)C(=O)OC)c(=O)c2cc3c(cc21)OCO3`, the IC90 is > 9.53 µM. Moreover, the half-inhibitory concentration (IC50) (FFLUC_HILL_SLOPE 11.2, FFLUC_R_SQUARED 0.325, read-out: LUCIFERASE INFECTION ASSAY - IC50) is > 9.53 µM.

Consider `COc1ccc(CCNC(=O)c2ccc3cc[nH]c3c2)cc1`, for which the IC90 is > 11.2 µM. Moreover, the IC50 (PBLUC_HILL_SLOPE 0.599, PBLUC_R_SQUARED 0.245, read-out: LUCIFERASE INFECTION ASSAY - IC50) came to 4.75 µM.

In the case of `CC(C)(C)CC(C)(C)c1ccc(OCC(O)CNC2CCC(O)CC2)cc1` (centres undefined), the IC90 turned out to be 7.58 µM. The IC50 (HEPG2TOX_HILL_SLOPE 10.5, HEPG2TOX_R_SQUARED 0.116, PBLUC_HILL_SLOPE 3.56, PBLUC_R_SQUARED 0.606, read-out: LUCIFERASE INFECTION ASSAY - IC50) is 4.09 µM.

In the case of `CC1CCN(CCCCOc2cccc(Cl)c2)CC1`, the IC90 is > 10 µM. Moreover, under setting [1], the IC50 was > 10 µM.

Turning to `CC(Oc1ccc(Cl)cc1Cl)C(=O)Nc1nc(-c2c[nH]c(C(N)=O)c2)cs1` (centres undefined), the 90% effect concentration (IC90) worked out at 2.99 µM. Under “PBLUC_HILL_SLOPE 4.28, PBLUC_R_SQUARED 0.703, read-out: LUCIFERASE INFECTION ASSAY - IC50”, the IC50 turned out to be 1.79 µM.

Regarding `Cc1nn(Cc2ccccc2Cl)c(Cl)c1/C=C/C(=O)OC(C)C(=O)N1CCCc2ccccc21` (centres undefined), the IC90 is > 10 µM. Also, the IC50 under setting [1] is > 10 µM.

Consider `CCOc1c(Br)cnn(-c2ccc(C)cc2)c1=O`, for which the IC90 is > 10.7 µM. In addition, the IC50 (HEPG2TOX_HILL_SLOPE 0.0619, HEPG2TOX_R_SQUARED 0.0842, PBLUC_HILL_SLOPE 9.69, PBLUC_R_SQUARED 0.342, read-out: LUCIFERASE INFECTION ASSAY - IC50) is > 10.7 µM.

As to `CCCCNC(=S)NN=C(c1ccccc1)c1ccccc1`, the concentration for an effect of 90% (IC90) was > 10 µM. Moreover, the IC50 under setting [1] is > 10 µM.

On to `COc1ccc(-c2csc3ncnc(NC4CCN(CC(N)=O)CC4)c23)cc1`, for which the IC90 is 8.68 µM. Also, the half-inhibitory concentration (IC50) under setting [1] was 5.11 µM.

For `O=C(COc1ccccc1)N1CCc2nc(NCc3cccc(Oc4ccccc4)c3)ncc2C1`, the IC90 was > 7.07 µM. For the same molecule, under setting [1], the IC50 was > 7.07 µM.

For `Cc1ccc(-c2nc(NC(=O)c3ccn(C)c(=O)c3)sc2-c2ccc(C)cc2)cc1`, the IC90 was found to be 5.86 µM. The IC50 (HEPG2TOX_HILL_SLOPE 6.56, HEPG2TOX_R_SQUARED 0.678, PBLUC_HILL_SLOPE 73.6, 3.22, PBLUC_R_SQUARED 0.772, 0.348, read-out: LUCIFERASE INFECTION ASSAY - IC50) is 3.76 µM.

`CN(C)CCNC(=O)c1ccc(-c2cn3c(-c4cccc(Cl)c4)cnc3cn2)cc1`: the IC90 was > 7.86 µM. Besides, the IC50 under setting [1] was > 7.86 µM.

On to `Cc1onc(-c2c(Cl)cccc2Cl)c1C(=O)ONC(=N)c1c(Cl)cccc1Cl`, for which the IC90 is > 7.19 µM. Besides, the IC50 (PBLUC_HILL_SLOPE 3.4, PBLUC_R_SQUARED 0.373, read-out: LUCIFERASE INFECTION ASSAY - IC50) was found to be 5.6 µM.

Take `COc1ccc(-c2cnn3c(N)c(-c4cccc(Cl)c4)cnc23)cc1OC`: the 90% effect concentration (IC90) is > 8.67 µM. Further, the IC50 (HEPG2TOX_HILL_SLOPE 8.92, HEPG2TOX_R_SQUARED 0.943, PBLUC_HILL_SLOPE 1.73, PBLUC_R_SQUARED 0.738, read-out: LUCIFERASE INFECTION ASSAY - IC50) was found to be 2.75 µM.

Consider `Cn1/c(=N/NC=C2CCC/C(=C/c3ccccc3)C2=O)sc2ccccc21`, for which the IC90 was > 10 µM. In addition, where the note is “PBLUC_HILL_SLOPE 4.26, PBLUC_R_SQUARED 0.398, read-out: LUCIFERASE INFECTION ASSAY - IC50”, the IC50 was determined as 8.32 µM.

Turning to `CC1CC(C)CN(C(=O)c2ccccc2C(=O)OCC(=O)NCc2cccs2)C1` (centres undefined), the IC90 is > 10 µM. Under setting [1], the IC50 is > 10 µM.

With `Cn1ccc2cc(-c3cnc4cnc(-c5ccc6c(c5)OCO6)cn34)ccc21`, the IC90 is 0.0413 µM. The IC50 (HEPG2TOX_HILL_SLOPE 1.26, HEPG2TOX_R_SQUARED 0.912, PBLUC_HILL_SLOPE 10.9, PBLUC_R_SQUARED 0.837, read-out: LUCIFERASE INFECTION ASSAY - IC50) amounted to 0.0338 µM.

`COc1cc(-c2cc3nc(Nc4ccc5c[nH]nc5c4)ccn3n2)cc(OC)c1OC`: the 90% effect concentration (IC90) is > 7.92 µM. Moreover, the IC50 (PBLUC_HILL_SLOPE 11.7, PBLUC_R_SQUARED 0.319, read-out: LUCIFERASE INFECTION ASSAY - IC50) stood at 7.27 µM.

Turning to `CC(C)(C)C(=O)/C=c1\[nH]c(=O)/c(=C\c2ccc(-c3ccc(S(=O)(=O)N4CCOCC4)cc3)o2)s1`, the IC90 was > 10 µM. The IC50 (FFLUC_HILL_SLOPE 2, FFLUC_R_SQUARED 0.892, read-out: LUCIFERASE INFECTION ASSAY - IC50) was > 10 µM.

For the molecule `O=C(NCCCC(=O)N1CCC(c2ccc(O)cc2)CC1)c1ccsc1`, the IC90 is > 10 µM. The IC50 under setting [1] was > 10 µM.

As to `CC(C)n1ncc2c(C(=O)Nc3nnc(C(F)(F)F)s3)cc(-c3ccc4c(c3)OCCO4)nc21`, the IC90 was found to be 5.59 µM. Besides, the IC50 (FFLUC_HILL_SLOPE 2.46, FFLUC_R_SQUARED 0.0818, HEPG2TOX_HILL_SLOPE 10.3, HEPG2TOX_R_SQUARED 0.775, PBLUC_HILL_SLOPE 73.3, PBLUC_R_SQUARED 0.159, read-out: LUCIFERASE INFECTION ASSAY - IC50) amounted to 5.42 µM.

In the case of `Cc1cc(C(=O)CN(Cc2ccco2)S(=O)(=O)/C=C/c2ccccc2)c(C)n1C`, the IC90 is > 10 µM. The IC50 (HEPG2TOX_HILL_SLOPE 3.54, HEPG2TOX_R_SQUARED 0.932, PBLUC_HILL_SLOPE 9.57, PBLUC_R_SQUARED 0.198, read-out: LUCIFERASE INFECTION ASSAY - IC50) was 8.84 µM.

`N=C(N)N/N=C\c1cccc2ccccc12`: the IC90 was > 15.5 µM. In addition, the half-inhibitory concentration (IC50) (PBLUC_HILL_SLOPE 1.61, PBLUC_R_SQUARED 0.436, read-out: LUCIFERASE INFECTION ASSAY - IC50) turned out to be 6.92 µM.

On to `CC(C)(C)NC(=S)N/N=C/c1c(O)ccc2ccccc12`, for which the IC90 was determined as 6.74 µM. Also, the IC50 under setting [1] turned out to be 2.97 µM.

In the case of `COC(=O)c1ccc(C)c(NC(=O)CCc2ccc3c(c2)OCCO3)c1`, the IC90 was > 10 µM. In addition, under setting [1], the IC50 was > 10 µM.

A word on the IC50: it is the concentration that inhibits the measured activity by half. As usually defined, the IC90 is the concentration needed for an effect of 90%.
